The target in one test is T1, Factor XIIIa (Homo sapiens, UniProt P00488).
T1 construct: from tissue; host or cells: human plasma
T1 sequence (P00488 39-732 limits assumed): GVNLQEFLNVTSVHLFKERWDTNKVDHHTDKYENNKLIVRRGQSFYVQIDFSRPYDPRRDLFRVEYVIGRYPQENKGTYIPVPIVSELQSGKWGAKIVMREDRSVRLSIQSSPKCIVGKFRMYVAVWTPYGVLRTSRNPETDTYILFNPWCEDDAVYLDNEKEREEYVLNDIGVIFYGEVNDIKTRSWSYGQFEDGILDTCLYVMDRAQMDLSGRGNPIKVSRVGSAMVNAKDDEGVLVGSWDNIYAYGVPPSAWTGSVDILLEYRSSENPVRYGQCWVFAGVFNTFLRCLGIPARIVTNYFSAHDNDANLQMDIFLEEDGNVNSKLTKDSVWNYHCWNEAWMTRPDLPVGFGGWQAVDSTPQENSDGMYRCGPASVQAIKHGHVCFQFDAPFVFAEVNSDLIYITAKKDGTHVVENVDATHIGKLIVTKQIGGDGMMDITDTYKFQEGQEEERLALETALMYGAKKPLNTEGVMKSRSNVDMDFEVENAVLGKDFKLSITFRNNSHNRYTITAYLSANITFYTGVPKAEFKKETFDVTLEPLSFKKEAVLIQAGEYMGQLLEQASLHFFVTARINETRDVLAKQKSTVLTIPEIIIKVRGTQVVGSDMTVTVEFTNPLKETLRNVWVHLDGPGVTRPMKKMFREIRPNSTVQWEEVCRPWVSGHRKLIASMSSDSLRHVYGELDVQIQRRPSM
The experiment in a line: Factor XIIIa inhibitor assay (incorporation of ^14 C-putrescine into casein catalyzed by Factor XIIIa). The format is biochemical. As to conditions: read-out: Percent Inhibition. The procedure:
The Factor XIIIa inhibitor assay is based on the incorporation of ^14 C-putrescine into casein catalyzed by Factor XIIIa. The assay is carried out employing the procedure described in Methods in Enzymology, Vol. 45, Ch 15., pages 177-191 (1976) and using Factor XIII (F XIII) isolated from human plasma. The procedure is summarized briefly and schematically illustrated as follows: [drawing 16]
Factor XIII assay mixtures are prepared by adding stepwise, appropriate prepared solutions of thrombin and dithiothreitol (DTT) to a mixture comprising Factor XIII in glycerol/water and tris(hydroxymethyl)aminomethane hydrochloride (Tris.cndot.HCl). To a portion of the mixture is added calcium chloride as source of calcium ions required for enzyme activity and to the remaining mixture is added instead of calcium ions ethylenediaminetetracetic acid (EDTA) which serves as a blank for background.
A substrate mixture is prepared from ^14 C-putrescine and […].
The assay tubes and control tubes are charged with the substrate mixture and incubated at 37° C. for 220 minutes. Samples are withdrawn from each tube, spotted onto a filter disk which is then immersed in ice cold trichloroacetic acid solution to precipitate the casein on the filter. The filter is then washed to remove unincorporated or free ^14 C-putrescine and after drying is counted for ^14 C-putrescine incorporated to casein from which percent activity and/or inhibition can be calculated.

For a further test, the system named is blood clots. The experiment in a line: in vitro clot lysis assay (TPA-catalyzed lysis of ^125 I-fibrin labelled clot). As to conditions: 200 μM cerulenin, buffer pH 7.5. In kind it is biochemical. The procedure: In the assay, whole blood or plasma is charged with ^125 I-fibrinogen. Thrombin is added to initiate clot formation and subsequently incubated for 2 hours to complete the cross-linking by endogenous Factor XIII. Factor XIIIa inhibitor is added prior to clot initiation or at various times during the 2-hour incubation. At the end of this period, the labelled clot is washed and lysis is initiated by exogenous tissue plasminogen activator (TPA). Exogenous plasminogen is employed in some experiments. Endogenous plasminogen is used for others. Clot dissolution as a function of time is monitored by the release of solubilized ^125 I-fibrin-derived fragments.
In FIGS. 1 and 2, the open symbols indicate absence of cerulenin and the closed symbols indicate the presence of 200μM cerulenin at the time of clot formation. Clot lysis is conducted in buffer, pH 7.5; 5 ng/mL TPA represents approximate physiologic concentration. 50 to […] represents pharmacologic concentration range. […] FIG. 2 studies employed glu-plasminogen levels at approximately 10 percent physiologic level (12μ/mL)

Molecules are shown by their SMILES.

The term inhibition denotes the change of the read-out against control, counted positive when it falls.

Consider `O=C(O)C=Cc1nc2ccccc2[nH]1` [3-(Benzimidazol-2-yl)-acrylic acid, 3-(benzimidazol-2-yl)acrylic acid], for which the inhibition at 13 µM at Factor XIIIa (1.3 × 10^-5 M) was 91%. In addition, the inhibition at 1.5 µM at Factor XIIIa (1.5 × 10^-6 M) turned out to be 52%. The inhibition at 0.17 µM at Factor XIIIa (1.7 × 10^-7 M) was determined as 9%. Further, on Factor XIIIa (4.5 × 10^-6 M), the inhibition at 4.5 µM turned out to be 78%. For the same molecule, the inhibition at 0.5 µM at Factor XIIIa (5 × 10^-7 M) was 19%.

For the molecule `C/C=C/C/C=C/CCC(=O)[C@H]1O[C@H]1C(N)=O` [Cerulenin, (2R,3S)-2,3-epoxy-4-oxo-7E,10E-dodecadienamide], the inhibition at 62 µM on Factor XIIIa (6.2 × 10^-5 M) is 100%. Moreover, the inhibition at 6.2 µM on Factor XIIIa (6.2 × 10^-6 M) is 64%. The inhibition at 0.62 µM at Factor XIIIa (6.2 × 10^-7 M) is 22%. For the same molecule, the lysis rates result in the test with blood clots (12 μg/mL exogenous glu-plasminogen, TPA, FIG. 2) is recorded as “lysis rates were further enhanced”. Besides, in the test on blood clots (no exogenous plasminogen, physiological and pharmacological levels of TPA, FIG. 1), the “rates and extents of lysis” value was “enhanced rates and extents of lysis”.

The values are drawn from patent publication US4968494A, “Methods and compositions for thrombolytic therapy” (Merck & Co., Inc., priority 1990, dated 1990).
